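Method: 48-hour compound exposure of cells in 96-well plates, five concentrations, linear interpolation of endpoints. The concentration for 50% growth inhibition is given as GI50.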 The source made the active and inactive calls. No stated cut-off is given here; in the data, active = GI50 up to about 1.1 µM and inactive = higher.
Legend:
Assay in all cases: inhibition of tumour cell growth, NCI panel, 48 h
HOP-18 = test system: HOP-18
DLD-1 = test system: DLD-1
LXFL 529 = test system: LXFL 529
DMS-114 = test system: DMS-114
RXF 631 = test system: RXF 631
MDA-MB-435 = test system: MDA-MB-435
T47D = test system: T47D
MDA-MB-231 = test system: MDA-MB-231
MDA-N = test system: MDA-N

Measured: GI50

O=c1c2cc(Br)ccc2nc(CNc2ccccc2)n1-c1ccccc1
inactive: HOP-18 36.7 µM | DLD-1 9.02 µM | LXFL 529 14.9 µM | DMS-114 11.5 µM

CCCCCCCCCCCCCCCC(=O)OCC1OC(OC)C2NP(=O)(N(CCCl)CCCl)OC1C2O (stereo not drawn)
inactive: HOP-18 8.53 µM | RXF 631 6.89 µM | DLD-1 2.7 µM | LXFL 529 2.43 µM | DMS-114 1.54 µM | MDA-MB-435 7.55 µM | T47D 2.73 µM

NCc1cccc(O)c1O
inactive: HOP-18 > 100 µM | RXF 631 > 100 µM | DLD-1 90.4 µM | LXFL 529 > 100 µM | DMS-114 > 100 µM

CCOC(=O)N1CCc2cc(OC)c(OC)cc2/C1=C\c1ccc(OC)c(OC)c1
inactive: HOP-18 29.5 µM | DLD-1 37 µM | LXFL 529 29.5 µM | DMS-114 35.3 µM

CCOC(=O)C1=C(C)N(NC(=O)c2ccccc2)C2(O)CCCC12C(=O)OCC (stereo not drawn)
inactive: RXF 631 > 100 µM | LXFL 529 > 100 µM | DMS-114 > 100 µM

COC(OC)c1cccc2c1C(=O)CCC1(O)c3ccccc3C1C2 (stereo not drawn)
inactive: HOP-18 91.6 µM | DLD-1 > 100 µM | LXFL 529 86.3 µM | DMS-114 39.1 µM

CCCCCCCCCCOC(=O)c1cc[n+](C)cc1
inactive: HOP-18 42.7 µM | DLD-1 18.5 µM | LXFL 529 16.3 µM | DMS-114 18 µM

COc1ccc2c(C3(O)CCNCC3)c[nH]c2c1
inactive: HOP-18 > 100 µM | RXF 631 > 100 µM | DLD-1 > 100 µM | LXFL 529 > 100 µM

C/C(CC(=O)Nc1ccc(C)c(C)c1)=N\N(c1ccccc1)c1ccccc1
inactive: HOP-18 > 100 µM | DLD-1 55.7 µM | LXFL 529 64.1 µM | DMS-114 18.3 µM

CC1CC(=O)C2CC(CO)=CCCC2C1(C)CC/C(=C/CO)CO (stereo not drawn)
inactive: HOP-18 > 100 µM | DLD-1 > 100 µM | LXFL 529 > 100 µM | DMS-114 > 100 µM

COc1ccccc1C(=O)Nc1ccc(Cl)c(C(=O)OC(C)C)c1
inactive: HOP-18 > 100 µM | RXF 631 41.1 µM | MDA-MB-231 > 100 µM | DMS-114 19 µM | MDA-MB-435 > 100 µM | T47D 20.1 µM | MDA-N 31.1 µM

COC(=O)/C=C1\CCC(C)O1 (stereo not drawn)
inactive: RXF 631 > 100 µM | DLD-1 > 100 µM | LXFL 529 > 100 µM | DMS-114 > 100 µM

Cc1c[n+]2c3ccccc3c3ccccc3c2s1.[O-][Cl+3]([O-])([O-])[O-]
inactive: HOP-18 40.2 µM | DLD-1 12 µM | LXFL 529 3.16 µM | DMS-114 2.61 µM

CCCCCCCCCCCc1noc2c1C(=O)C(O)CC2 (stereo not drawn)
inactive: RXF 631 17.6 µM | LXFL 529 16.6 µM

C[C@]12CCC3c4ccc(OC(=O)c5ccccc5)cc4CC[C@H]3C1CC[C@@H]2OC(=O)C12OC1CCC2=O (stereo partly drawn)
inactive: HOP-18 5.71 µM | DLD-1 2.47 µM | LXFL 529 1.91 µM | DMS-114 2.6 µM

CC1(O)C(C)(O)C(C)(O)C1(C)O (stereo not drawn)
inactive: HOP-18 > 100 µM | DLD-1 > 100 µM | LXFL 529 > 100 µM | DMS-114 > 100 µM

CCCCN(CCCC)C(=O)C(=O)CC(=O)/C=C/c1ccccc1
inactive: HOP-18 > 100 µM | RXF 631 > 100 µM | DLD-1 > 100 µM | LXFL 529 > 100 µM | DMS-114 > 100 µM

CS(=O)(=O)NNS(=O)(=O)c1cccc([N+](=O)[O-])c1
inactive: RXF 631 > 100 µM | DLD-1 > 100 µM | LXFL 529 > 100 µM | DMS-114 > 100 µM

O=C(/C(=N/Nc1ccccc1)c1ccc([N+](=O)[O-])cc1)c1ccc([N+](=O)[O-])cc1
inactive: HOP-18 > 100 µM | DLD-1 > 100 µM | LXFL 529 > 100 µM | DMS-114 > 100 µM

CCCCNC(=O)OCC(COc1ccccc1OC)OC(=O)NCCCC (stereo not drawn)
inactive: HOP-18 39.5 µM | RXF 631 > 100 µM | DLD-1 > 100 µM | LXFL 529 > 100 µM | DMS-114 78.7 µM

CC1CN(C(=O)CN2CCC(CCCCN(C)C)CC2)c2ccccc2NC1=O (stereo not drawn)
inactive: HOP-18 > 100 µM | RXF 631 > 100 µM | DLD-1 > 100 µM | LXFL 529 > 100 µM | DMS-114 > 100 µM

CCOc1ccc(NC(=O)/C(=C\c2ccc(C)cc2)C(C)=O)cc1
inactive: HOP-18 > 100 µM | RXF 631 > 100 µM | DLD-1 > 100 µM | LXFL 529 > 100 µM | DMS-114 > 100 µM

CC(C)C.C[N+](C)(C)C.OC(c1ccccc1)(C(F)(F)F)C(F)(F)F.OC(c1ccccc1)(C(F)(F)F)C(F)(F)F.[SiH3-]
inactive: HOP-18 4.16 µM | RXF 631 2.58 µM | DLD-1 2.77 µM | LXFL 529 4.19 µM | DMS-114 7.16 µM

COC(=O)N(C(=O)OC)C(C(=O)O)C(C)C (stereo not drawn)
inactive: HOP-18 > 100 µM | DLD-1 > 100 µM | LXFL 529 > 100 µM | DMS-114 > 100 µM

COc1ccc(C2=Nc3ccccc3SC(C)C2)cc1OC (stereo not drawn)
inactive: HOP-18 > 10 µM | RXF 631 42.2 µM | LXFL 529 17.4 µM | DMS-114 19.4 µM

CCOC(=O)NN1C(=O)C(=P(c2ccccc2)(c2ccccc2)c2ccccc2)C(C(=O)OC)=C1C
inactive: HOP-18 > 100 µM | DLD-1 > 100 µM | LXFL 529 > 100 µM | DMS-114 > 100 µM

NC(CCc1ncc(C(=O)O)s1)C(=O)O (stereo not drawn)
inactive: HOP-18 > 100 µM | RXF 631 > 100 µM | DLD-1 > 100 µM | LXFL 529 > 100 µM | DMS-114 > 100 µM

Source: ChEMBL document CHEMBL1201862, “PubChem BioAssay data set” (2004)
